Test results reported in PMC7583830 (Molecules, 2020).
Values joined by “and” are separate entries in the source; they are usually repeats but may differ in a detail not shown here. Equal entries are not always repeated. Where two headings read alike, the source gives them in different places. Where a SMILES comes first, the peptide text is derived from it. [ ]: non-standard residue; d: D form. The star is where a group is joined. DOTA = O=C(O)CN1CCN(CC(=O)O)CCN(CC(=O)*)CCN(CC(=O)O)CC1; 1Nal = N[C@@H](Cc1cccc2ccccc12)C(=O)O; NMeNle = CCCC[C@H](NC)C(=O)O

Assays:
human CCK2R = biological target: T1, human CCK2R (Homo sapiens, UniProt P32239); experiment: Competition assay against [125I][3-iodo-Tyr12,Leu15]gastrin-I on A431-CCK2R cells; format: binding; details: non-labeled peptide, displacement of [125I][3-iodo-Tyr12,Leu15]gastrin-I, 1 h RT
T1 construct: expressed in transfected cells; host or cells: A431 human epidermoid carcinoma cells, stably transfected (plasmid pCR3.1); provided by Dr. Luigi Aloj
T1 sequence (P32239 1-447): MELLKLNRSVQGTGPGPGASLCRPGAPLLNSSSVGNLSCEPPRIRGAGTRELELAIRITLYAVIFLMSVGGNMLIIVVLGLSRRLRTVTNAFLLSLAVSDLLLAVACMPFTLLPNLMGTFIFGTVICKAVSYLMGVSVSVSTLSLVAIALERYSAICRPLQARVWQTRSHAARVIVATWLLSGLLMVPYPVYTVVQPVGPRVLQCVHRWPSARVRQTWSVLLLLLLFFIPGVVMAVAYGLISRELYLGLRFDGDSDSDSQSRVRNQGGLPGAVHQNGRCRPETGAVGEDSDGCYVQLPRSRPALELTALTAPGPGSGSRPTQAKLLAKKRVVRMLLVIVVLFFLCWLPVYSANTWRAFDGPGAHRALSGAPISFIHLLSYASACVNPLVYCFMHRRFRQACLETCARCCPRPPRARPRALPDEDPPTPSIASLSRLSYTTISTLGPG
Experimental: [^125I][3-iodo-Tyr^12,Leu^15]gastrin-I at high molar activity was obtained by HPLC purification and stored in aliquots at −25 °C. Binding assays were carried out using 96-well filter plates (MultiScreenHTS-FB, Merck Group, Darmstadt, Germany) pre-treated with 10 mM TRIS/139 mM NaCl pH 7.4 (2 × 250 µL). For the assay, 200,000–400,000 A431-CCK2R cells per well were prepared in 20 mM HEPES buffer pH 7.4 containing 10 mM MgCl2, 14 µM bacitracin and 0.5% BSA. The cells (n = 3) were incubated with increasing concentrations of the peptide conjugates (0.0003–30,000 nM) and [^125I][3-iodo-Tyr^12,Leu^15]gastrin-I (50,000 cpm) for 1 h at RT. Incubation was interrupted by filtration of the medium and rapid rinsing with ice-cold 10 mM TRIS/139 mM NaCl pH 7.4 (2 × 200 µL) and the filters were measured in the gamma-counter. Half maximal inhibitory concentration (IC50) values were calculated following nonlinear regression with Origin software (Microcal Origin 6.1, Northampton, MA, USA).

[1] = Distribution coefficient (logD) in octanol/PBS; format: physicochemical
Experimental: The mixture was vigorously vortexed at room temperature over a period of 15 min using a small shaker (MS3 Basic, IKA, Staufen, Germany) with speed of 1500 rpm.

[2] = Metabolic stability in vivo and radiometabolites (radio-HPLC of blood, urine, liver, kidney); parameters: species or system BALB/c mice
Experimental: Metabolic biodistribution studies were performed in accordance with the ethical standards of the institution and approved by the Austrian Ministry of Science (BMWFW-66.011/0072-V/3b/2019). These studies were carried out in 5- to 7-week-old female BALB/c mice (n = 3) injected with [^177Lu]Lu-1 via a lateral tail vein. To allow monitoring of the metabolites by radio-HPLC, mice were injected with 30 MBq corresponding to 0.8 nmol total peptide. The mice were euthanized by cervical dislocation after different time points of 10 min, 30 min and 1 h p.i. and the urine and a venous blood sample were collected at the time of sacrifice. Liver and kidneys were dissected and homogenized in 20 mM HEPES buffer pH 7.3 at a ratio of 1:1 (v/v) with an Ultra-Turrax T8 homogenizer (IKA-Werke, Staufen, Germany) for 1 min at RT. Before radio-HPLC analysis, the samples (except urine) were treated with ACN at a ratio of 1:1 (v/v) to precipitate proteins, centrifuged at 2000× g for 2 min and diluted with water at a ratio of 1:1 (v/v). For HPLC analysis of the samples, the analytical HPLC system described above with a flow rate of 1 mL/min was used together with the following optimized water/ACN/0.1% TFA gradient to allow a better separation of [^177Lu]Lu-1 and the different radiometabolites: 0–7 min 1–7% ACN, 7–8 min 7–10% ACN, 8–18 min 10–18% ACN, 18–20 min 18–32% ACN, 20–27 min 32% ACN, 27–37 min […], 37–40 min 80% ACN, 40–40.1 min 80–1% ACN, 40.1–45 min 1% ACN. Urine was measured with the low-sensitivity loop of the radiodetector. The remaining samples were analyzed with the high-sensitivity loop due to the lower radioactivity present in blood, liver and kidney homogenate. To quantify the percentage of intact [^177Lu]Lu-1 and [^177Lu]Lu-M1 showing some overlap in the radiochromatogram when using the high-sensitivity loop of the radiodetector, the two radiopeptides were co-injected at different known ratios to enable a more accurate separation and integration of the two peaks (see supporting Figure S4). Mice from the metabolic biodistribution studies were subjected to a further dissection of all remaining tissues (blood, lung, heart, femur, spleen, muscle, intestine, pancreas and stomach). All organs, also including liver and kidneys, were weighed, and their radioactivity was measured in the gamma counter together with a standard and the residual body. To quantify the uptake of radioactivity in liver and kidneys, a part of liver and kidney homogenate was measured in the gamma counter to extrapolate the radioactivity for the whole organ.

[3] = Stability in fresh human serum (radio-HPLC); format: in vitro ADME; details: 24 h incubation, 37 °C
Experimental: In vitro stability studies for the characterization of the metabolic stability of the radiolabeled peptide analogs in human serum were carried out with [^177Lu]Lu-1, [^177Lu]Lu-M1, [^177Lu]Lu-M2, [^177Lu]Lu-M3 and [^177Lu]Lu-M4 (n = 2). Additional stability studies in rat liver and kidney homogenates were performed for [^177Lu]Lu-1 (n = 2). Tissue homogenates were prepared from dissected organs by homogenization for 1 min at RT (IKA-Werke, Staufen, Germany) in 20 mM HEPES buffer pH 7.3 (30% v/v). The radioligands were incubated in the different media at a concentration of 500 pmol/mL (corresponding to an activity of 6–11 MBq). After incubation at 37 °C at different time points for up to 24 h, a 100 µl sample was taken in duplicates and analyzed by HPLC. Samples obtained from human serum and rat homogenates were treated with ACN at a ratio of 1:1.5 (v/v) to precipitate proteins, centrifuged (14,000 rpm, 2 min, centrifuge 5424, Eppendorf AG, Germany) and diluted with water at a ratio of 1:1 (v/v). A 100 µl aliquot of this solution was injected into the radio HPLC system. The degradation of the radioligand was evaluated based on the radiochemical purity after radiolabeling and the percentage of intact radiopeptide observed during incubation in the different media.

[4] = Protein binding in human serum by size exclusion chromatography; format: in vitro ADME; details: 24 h incubation
Experimental: For protein binding assessment, the radiolabeled DOTA-peptides were incubated in fresh human serum at 37 °C (500 pmol/mL, n = 2). After 1, 4 and 24 h of incubation, two samples were taken for each time point and analyzed by Sephadex G-50 size-exclusion chromatography (GE Healthcare Illustra, Little Chalfont, UK). The percentage of protein binding was determined by measuring the column and the eluate with the gamma-counter.

[5] = octanol/PBS pH 7.4, read-out: logD
[6] = blood, 30 min p.i., mice injected i.v. with [177Lu]Lu-1
[7] = blood, 60 min p.i., mice injected i.v. with [177Lu]Lu-1
[8] = blood, different time points up to 1 h p.i.

SMILES: O=C(O)CC[C@@H](NC(=O)CN1CCN(CC(=O)O)CCN(CC(=O)O)CCN(CC(=O)O)CC1)C(=O)N1CCC[C@H]1C(=O)N[C@@H](Cc1ccc(O)cc1)C(=O)NCC(=O)N[C@@H](Cc1c[nH]c2ccccc12)C(=O)O [M4, DOTA-DGlu-Pro-Tyr-Gly-Trp] ({DOTA}-[dE]PYGW-OH; C-terminus assumed)
- IC50 (human CCK2R): > 1000 nM

SMILES: CCCC[C@@H](C(=O)N[C@@H](CC(=O)O)C(=O)N[C@@H](Cc1cccc2ccccc12)C(N)=O)N(C)C(=O)[C@H](Cc1c[nH]c2ccccc12)NC(=O)CNC(=O)[C@H](Cc1ccc(O)cc1)NC(=O)[C@@H]1CCCN1C(=O)[C@@H](CCC(=O)O)NC(=O)CN1CCN(CC(=O)O)CCN(CC(=O)O)CCN(CC(=O)O)CC1 [compound 1, DOTA-DGlu-Pro-Tyr-Gly-Trp-(N-Me)Nle-Asp-1Nal-NH2] ({DOTA}-[dE]PYGW[NMeNle]D[1Nal]-NH2)
- IC50 (human CCK2R): 0.69 ± 0.09 nM

SMILES: CCCC[C@@H](C(=O)N[C@@H](CC(=O)O)C(=O)O)N(C)C(=O)[C@H](Cc1c[nH]c2ccccc12)NC(=O)CNC(=O)[C@H](Cc1ccc(O)cc1)NC(=O)[C@@H]1CCCN1C(=O)[C@@H](CCC(=O)O)NC(=O)CN1CCN(CC(=O)O)CCN(CC(=O)O)CCN(CC(=O)O)CC1 [M2, DOTA-DGlu-Pro-Tyr-Gly-Trp-(N-Me)Nle-Asp] ({DOTA}-[dE]PYGW[NMeNle]D-OH; C-terminus assumed)
- IC50 (human CCK2R): > 1000 nM

SMILES: O=C(O)CC[C@@H](NC(=O)CN1CCN(CC(=O)O)CCN(CC(=O)O)CCN(CC(=O)O)CC1)C(=O)N1CCC[C@H]1C(=O)N[C@@H](Cc1ccc(O)cc1)C(=O)NCC(=O)N[C@@H](Cc1c[nH]c2ccccc12)C(=O)O [[^177Lu]Lu-M4, metal not drawn] ({DOTA}-[dE]PYGW-OH; C-terminus assumed)
- logD ([1]; pH 7.4): -4.19 ± 0.3
- amount of radiometabolite ([2]; mouse, in vivo): < 3%

SMILES: O=C(O)CC[C@@H](NC(=O)CN1CCN(CC(=O)O)CCN(CC(=O)O)CCN(CC(=O)O)CC1)C(=O)N1CCC[C@H]1C(=O)N[C@@H](Cc1ccc(O)cc1)C(=O)NCC(=O)O [[^177Lu]Lu-M5, metal not drawn] ({DOTA}-[dE]PYG-OH; C-terminus assumed)
- amount of radiometabolite ([2]; mouse, in vivo): < 10%

SMILES: CCCC[C@@H](C(=O)N[C@@H](CC(=O)O)C(=O)O)N(C)C(=O)[C@H](Cc1c[nH]c2ccccc12)NC(=O)CNC(=O)[C@H](Cc1ccc(O)cc1)NC(=O)[C@@H]1CCCN1C(=O)[C@@H](CCC(=O)O)NC(=O)CN1CCN(CC(=O)O)CCN(CC(=O)O)CCN(CC(=O)O)CC1 [[^177Lu]Lu-M2, metal not drawn] ({DOTA}-[dE]PYGW[NMeNle]D-OH; C-terminus assumed)
- intact radiopeptide [3]: 98.1 ± 0.3%
- logD [1, 5]: -4.18 ± 0.17
- fraction unbound [4]: 0.519
- percentage of intact radiopeptide / radiometabolite [2, 6]: 3.8%
- percentage of intact radiopeptide / radiometabolite [2, 7]: 7.3%
- amount of radiometabolite [2, 8]: < 8%
- percentage of intact radiopeptide / radiometabolite ([2]; kidney, 30 min p.i.): 20.7%
- percentage of intact radiopeptide / radiometabolite ([2]; kidney, 60 min p.i.): 12% and 12.3%
- percentage of intact radiopeptide / radiometabolite ([2]; liver, 30 min p.i.): 7.2%
- percentage of intact radiopeptide / radiometabolite ([2]; liver, 60 min p.i.): 6.9%
- percentage of intact radiopeptide / radiometabolite ([2]; urine, 30 min p.i.): 40.5%
- percentage of intact radiopeptide / radiometabolite ([2]; urine, 60 min p.i.): 40.3%
- amount of radiometabolite ([2]; urine, time point not stated): ~ 40%

SMILES: CCCC[C@@H](C(=O)N[C@@H](CC(=O)O)C(=O)N[C@@H](Cc1cccc2ccccc12)C(=O)O)N(C)C(=O)[C@H](Cc1c[nH]c2ccccc12)NC(=O)CNC(=O)[C@H](Cc1ccc(O)cc1)NC(=O)[C@@H]1CCCN1C(=O)[C@@H](CCC(=O)O)NC(=O)CN1CCN(CC(=O)O)CCN(CC(=O)O)CCN(CC(=O)O)CC1 [M1, DOTA-DGlu-Pro-Tyr-Gly-Trp-(N-Me)Nle-Asp-1Nal-COOH] ({DOTA}-[dE]PYGW[NMeNle]D[1Nal]-OH)
- IC50 (human CCK2R): > 1000 nM

SMILES: CCCC[C@@H](C(=O)O)N(C)C(=O)[C@H](Cc1c[nH]c2ccccc12)NC(=O)CNC(=O)[C@H](Cc1ccc(O)cc1)NC(=O)[C@@H]1CCCN1C(=O)[C@@H](CCC(=O)O)NC(=O)CN1CCN(CC(=O)O)CCN(CC(=O)O)CCN(CC(=O)O)CC1 [[^177Lu]Lu-M3, metal not drawn] ({DOTA}-[dE]PYGW[NMeNle]-OH; C-terminus assumed)
- intact radiopeptide [3]: 29.7 ± 0.8%
- intact radiopeptide ([3]; listed as radiolabeled M3): less than 30%
- logD [1, 5]: -4.13 ± 0.11
- fraction unbound [4]: 0.766
- percentage of intact radiopeptide / radiometabolite [2, 6]: 17.0%
- percentage of intact radiopeptide / radiometabolite [2, 7]: 20.4%
- amount of radiometabolite [2, 8]: < 21%
- percentage of intact radiopeptide / radiometabolite ([2]; kidney, 30 min p.i.): 7.9%
- percentage of intact radiopeptide / radiometabolite ([2]; liver, 30 min p.i.): 8.5%
- percentage of intact radiopeptide / radiometabolite ([2]; liver, 60 min p.i.): 5.6%
- percentage of intact radiopeptide / radiometabolite ([2]; urine, 30 min p.i.): 9.5%
- percentage of intact radiopeptide / radiometabolite ([2]; urine, 60 min p.i.): 9.8%

SMILES: CCCC[C@@H](C(=O)O)N(C)C(=O)[C@H](Cc1c[nH]c2ccccc12)NC(=O)CNC(=O)[C@H](Cc1ccc(O)cc1)NC(=O)[C@@H]1CCCN1C(=O)[C@@H](CCC(=O)O)NC(=O)CN1CCN(CC(=O)O)CCN(CC(=O)O)CCN(CC(=O)O)CC1 [M3, DOTA-DGlu-Pro-Tyr-Gly-Trp-(N-Me)Nle] ({DOTA}-[dE]PYGW[NMeNle]-OH; C-terminus assumed)
- IC50 (human CCK2R): > 1000 nM

SMILES: O=C(O)CC[C@@H](NC(=O)CN1CCN(CC(=O)O)CCN(CC(=O)O)CCN(CC(=O)O)CC1)C(=O)N1CCC[C@H]1C(=O)N[C@@H](Cc1ccc(O)cc1)C(=O)O [[^177Lu]Lu-M6, metal not drawn] ({DOTA}-[dE]-Pro-Tyr-OH; C-terminus assumed)
- amount of radiometabolite ([2]; mouse, in vivo): ~ 20%
